Assay: xn = mol fraction of the nth substance listed
Settings: Liquid, Pycnometric method

CCCCCl [1-chlorobutane] + O=C=O
Settings | mass density [kg/m3]
333.3 K, 13470 kPa, x1 = 0.0744 | 733
333.3 K, 14290 kPa, x1 = 0.0744 | 750
333.3 K, 14750 kPa, x1 = 0.0744 | 759
333.3 K, 15240 kPa, x1 = 0.0744 | 768
337.4 K, 9620 kPa, x1 = 0.1488 | 705
337.4 K, 9770 kPa, x1 = 0.1488 | 709
337.4 K, 9890 kPa, x1 = 0.0981 | 605
337.4 K, 9930 kPa, x1 = 0.0744 | 509
337.4 K, 9950 kPa, x1 = 0.1488 | 714
337.4 K, 9960 kPa, x1 = 0.0483 | 378
337.4 K, 9960 kPa, x1 = 0.0744 | 513
337.4 K, 9980 kPa, x1 = 0.0981 | 612
337.4 K, 10010 kPa, x1 = 0.0744 | 520
337.4 K, 10040 kPa, x1 = 0.0483 | 384
337.4 K, 10070 kPa, x1 = 0.0981 | 619
337.4 K, 10080 kPa, x1 = 0.0744 | 527
337.4 K, 10090 kPa, x1 = 0.0483 | 390
337.4 K, 10150 kPa, x1 = 0.0981 | 625
337.4 K, 10150 kPa, x1 = 0.1488 | 719
337.4 K, 10160 kPa, x1 = 0.0483 | 396
337.4 K, 10180 kPa, x1 = 0.0744 | 536
337.4 K, 10230 kPa, x1 = 0.0483 | 402
337.4 K, 10250 kPa, x1 = 0.0981 | 632
337.4 K, 10280 kPa, x1 = 0.0744 | 547
337.4 K, 10290 kPa, x1 = 0.0483 | 409
337.4 K, 10360 kPa, x1 = 0.0483 | 415
337.4 K, 10360 kPa, x1 = 0.0981 | 639
337.4 K, 10360 kPa, x1 = 0.1488 | 724
337.4 K, 10420 kPa, x1 = 0.0483 | 422
337.4 K, 10420 kPa, x1 = 0.0744 | 560
337.4 K, 10490 kPa, x1 = 0.0483 | 429
337.4 K, 10500 kPa, x1 = 0.0981 | 647
337.4 K, 10550 kPa, x1 = 0.0744 | 571
337.4 K, 10570 kPa, x1 = 0.0483 | 436
337.4 K, 10580 kPa, x1 = 0.1488 | 729
337.4 K, 10630 kPa, x1 = 0.0981 | 654
337.4 K, 10650 kPa, x1 = 0.0483 | 444
337.4 K, 10700 kPa, x1 = 0.0744 | 583
337.4 K, 10730 kPa, x1 = 0.0483 | 452
337.4 K, 10790 kPa, x1 = 0.0981 | 662
337.4 K, 10820 kPa, x1 = 0.0483 | 459
337.4 K, 10840 kPa, x1 = 0.1488 | 735
337.4 K, 10870 kPa, x1 = 0.0744 | 595
337.4 K, 10900 kPa, x1 = 0.0483 | 468
337.4 K, 10960 kPa, x1 = 0.0981 | 670
337.4 K, 10990 kPa, x1 = 0.0483 | 477
337.4 K, 11060 kPa, x1 = 0.0744 | 607
337.4 K, 11090 kPa, x1 = 0.0483 | 485
337.4 K, 11090 kPa, x1 = 0.1488 | 740
337.4 K, 11170 kPa, x1 = 0.0981 | 678
337.4 K, 11190 kPa, x1 = 0.0483 | 495
337.4 K, 11270 kPa, x1 = 0.0483 | 501
337.4 K, 11270 kPa, x1 = 0.0744 | 620
337.4 K, 11340 kPa, x1 = 0.0483 | 508
337.4 K, 11380 kPa, x1 = 0.0981 | 686
337.4 K, 11380 kPa, x1 = 0.1488 | 746
337.4 K, 11440 kPa, x1 = 0.0483 | 516
337.4 K, 11510 kPa, x1 = 0.0483 | 521
337.4 K, 11520 kPa, x1 = 0.0744 | 634
337.4 K, 11640 kPa, x1 = 0.0981 | 694
337.4 K, 11680 kPa, x1 = 0.1488 | 751
337.4 K, 11830 kPa, x1 = 0.0744 | 648
337.4 K, 11930 kPa, x1 = 0.0981 | 703
337.4 K, 12030 kPa, x1 = 0.1488 | 757
337.4 K, 12200 kPa, x1 = 0.0744 | 663
337.4 K, 12240 kPa, x1 = 0.0981 | 711
337.4 K, 12380 kPa, x1 = 0.1488 | 762
337.4 K, 12580 kPa, x1 = 0.0981 | 721
337.4 K, 12630 kPa, x1 = 0.0744 | 679
337.4 K, 12750 kPa, x1 = 0.1488 | 768
337.4 K, 12950 kPa, x1 = 0.0981 | 729
337.4 K, 13160 kPa, x1 = 0.0744 | 695
337.4 K, 13180 kPa, x1 = 0.1488 | 774
337.4 K, 13380 kPa, x1 = 0.0981 | 739
337.4 K, 13450 kPa, x1 = 0.1488 | 778
337.4 K, 13780 kPa, x1 = 0.1488 | 781
337.4 K, 13800 kPa, x1 = 0.0744 | 713
337.4 K, 14110 kPa, x1 = 0.0981 | 753
337.4 K, 14120 kPa, x1 = 0.1488 | 786
337.4 K, 14480 kPa, x1 = 0.1488 | 790
337.4 K, 14580 kPa, x1 = 0.0744 | 731
337.4 K, 14830 kPa, x1 = 0.1488 | 794
337.4 K, 14970 kPa, x1 = 0.0981 | 768
337.4 K, 15140 kPa, x1 = 0.0744 | 742
337.4 K, 15300 kPa, x1 = 0.0981 | 774

— the NIST ThermoML archive (doi:10.1021/je900387e)
